From US9453000B2, “Polycyclic compound” (EISAI R&D MANAGEMENT CO., LTD., priority 2007, dated 2016)

Test system: Aβ42 production in rat primary neuronal culture
Experiment: Quantification of Aβ peptide in culture of neurons from rat fetus brain (Aβ ELISA)
Format: cell-based
Conditions: Primary cortical neuron, 72 h, rat primary cortical neurons (embryonic day 18 Wistar), three days after addition of the compound, Aβx-42 ELISA of medium, read-out: Aβ42 production reducing effect IC50
Experimental: Quantification of Aβ Peptide in Culture of Neurons from Rat Fetus Brain
(1) Rat Primary Neuronal Culture
Primary neuronal cultures were prepared from the cerebral cortex of embryonic day 18 Wistar rats (Charles River Japan, Yokohama, Japan). Specifically, the embryos were aseptically removed from pregnant rats under ether anesthesia. The brain was isolated from the embryo and immersed in an ice-cold L-15 medium (Invitrogen Corp. Cat #11415-064, Carlsbad, Calif., USA, or SIGMA L1518, for example). The cerebral cortex was collected from the isolated brain under a stereoscopic microscope. The cerebral cortex fragments collected were enzymatically treated in an enzyme solution containing 0.25% trypsin (Invitrogen Corp. Cat #15050-065, Carlsbad, Calif., USA) and 0.01% DNase (Sigma D5025, St. Louis, Mo., USA) at 37° C. for 30 minutes to disperse the cells. Here, the enzymatic reaction was stopped by adding inactivated horse serum to the solution. The enzymatically treated solution was centrifuged at 1,500 rpm for five minutes to remove the supernatant. 5 to 10 ml of a medium was added to the resulting cell mass. Neurobasal medium (Invitrogen Corp. Cat #21103-049, Carlsbad, Calif., USA) supplemented with 2% B27 supplement (Invitrogen Corp. Cat #17504-044, Carlsbad, Calif., USA), 25 μM 2-mercaptoethanol (2-ME, WAKO Cat #139-06861, Osaka, Japan), 0.5 mM L-glutamine (Invitrogen Corp. Cat #25030-081, Carlsbad, Calif., USA), and Antibiotics-Antimycotics (Invitrogen Corp. Cat #15240-062, Carlsbad, Calif., USA) was used as the medium (Neurobasal/B27/2-ME). However, the above Neurobasal medium not supplemented with 2-ME (Neurobasal/B27) was used for the assay. The cells were redispersed by mild pipetting of the cell mass to which the medium was added. The cell dispersion was filtered through a 40-μm nylon mesh (Cell Strainer, Cat #35-2340, Becton Dickinson Labware, Franklin Lakes, N.J., USA) to remove the remaining cell mass, and thus a neuronal cell suspension was obtained. The neuronal cell suspension was diluted with the medium and then plated in a volume of 100 μl/well at an initial cell density of 5×10^5 cells/cm^2 in a 96-well polystyrene culture plate pre-coated with poly-L or D-lysine (Falcon Cat #35-3075, Becton Dickinson Labware, Franklin Lakes, N.J., USA coated with poly-L-lysine using the method shown below, or BIOCOAT™ cell environments Poly-D-lysine cell ware 96-well plate, Cat #35-6461, Becton Dickinson Labware, Franklin Lakes, N.J., USA). Poly-L-lysine coating was carried out as follows. 100 μg/ml of a poly-L-lysine (SIGMA P2636, St. Louis, Mo., USA) solution was aseptically prepared with a 0.15 M borate buffer (pH 8.5). 100 μl/well of the solution was added to the 96-well polystyrene culture plate and incubated at room temperature for one or more hours or at 4° C. overnight or longer. The coated 96-well polystyrene culture plate was washed with sterile water four or more times, and then dried or rinsed with, for example, sterile PBS or medium, and used for cell plating. The plated cells were cultured in the culture plate at 37° C. in 5% CO2-95% air for one day. Then, the total amount of the medium was replaced with a fresh Neurobasal™/B27/2-ME medium, and then the cells were cultured for further three days.
The drug was added to the culture plate on Day 4 of culture as follows. The total amount of the medium was removed from the wells, and 180 μl/well of Neurobasal medium not containing 2-ME and containing 2% B-27 (Neurobasal/B27) was added thereto. A solution of the test compound in dimethyl sulfoxide (hereinafter abbreviated as DMSO) was diluted with Neurobasal/B27 at 10-fold of the final concentration. 20 μl/well of the dilution was added to and sufficiently mixed with the medium. The final DMSO concentration was 1% or less. Only DMSO was added to the control group.
The cells were cultured for three days after addition of the compound, and the total amount of the medium was collected. […]

SMILES	IC50 [nM]
COc1nc(/C=C/c2nc3n(n2)CCC(C)N3c2ccccc2C(F)(F)F)ccc1-n1cnc(C)c1 (single isomer, unassigned; (+)) [Example 373, (+)-2-{(E)-2-[6-methoxy-5-(4-methyl-1H-imidazol-1-yl)pyridin-2-yl]vinyl}-5-methyl-4-(2-trifluoromethylphenyl)-4,5,6,7-tetrahydro-[1,2,4]triazolo[1,5-a]pyrimidine]	29
COc1cc(/C=C(\F)c2nc3n(n2)CCCC3(O)c2cc(F)c(F)c(F)c2)ccc1-n1cnc(C)c1 (single isomer, unassigned; (-)) [Example 94, (−)-2-{(Z)-1-fluoro-2-[3-methoxy-4-(4-methyl-1H-imidazol-1-yl)phenyl]vinyl}-8-(3,4,5-trifluorophenyl)-5,6,7,8-tetrahydro[1,2,4]triazolo[1,5-a]pyridin-8-ol]	52
COc1cc(/C=C/c2nc3n(n2)CCC3c2ccccc2)ccc1-n1cnc(C)c1 (single isomer, unassigned; (-)) [Example 141, (−)-2-{(E)-2-[3-methoxy-4-(4-methyl-1H-imidazol-1-yl)phenyl]vinyl}-7-phenyl-6,7-dihydro-5H-pyrrolo[1,2-b][1,2,4]triazole]	36
COc1nc(/C=C/c2nc3n(n2)CCOC3c2ccc(Cl)cc2)ccc1-n1cnc(C)c1 (single isomer, unassigned; (-)) [Example 262, (−)-8-(4-chlorophenyl)-2-{(E)-2-[6-methoxy-5-(4-methyl-1H-imidazol-1-yl)pyridin-2-yl]vinyl}-5,6-dihydro-8H-[1,2,4]triazolo[5,1-c][1,4]oxazine]	74
COc1nc(/C=C/c2nc3n(n2)CCCC3c2cc(F)cc(F)c2)ccc1-n1cnc(C)c1 (single isomer, unassigned; (-)) [Example 365, (−)-8-(3,5-difluorophenyl)-2-{(E)-2-[6-methoxy-5-(4-methyl-1H-imidazol-1-yl)pyridin-2-yl]vinyl}-5,6,7,8-tetrahydro-[1,2,4]triazolo[1,5-a]pyridine]	21
COc1nc(/C=C/c2nc3n(n2)CCOC3c2ccccc2C(F)(F)F)ccc1-n1cnc(C)c1 (single isomer, unassigned; (-)) [Example 368, (−)-2-{(E)-2-[6-methoxy-5-(4-methyl-1H-imidazol-1-yl)pyridin-2-yl]vinyl}-8-(2-trifluoromethylphenyl)-5,6-dihydro-8H-[1,2,4]triazolo[5,1-c][1,4]oxazine]	25
COc1nc(/C=C/c2nc3n(n2)CCC3c2cc(F)cc(F)c2)ccc1-n1cnc(C)c1 (single isomer, unassigned; (-)) [Example 384, (−)-7-(3,5-difluorophenyl)-2-{(E)-2-[6-methoxy-5-(4-methyl-1H-imidazol-1-yl)pyridin-2-yl]vinyl}-6,7-dihydro-5H-pyrrolo[1,2-b][1,2,4]triazole]	36
CCCCC(O)c1ccc(C2CCCn3nc(/C=C/c4ccc(-n5cnc(C)c5)c(OC)c4)nc32)cc1 (stereo not shown) [Example 19, 1-{4-{2-{(E)-2-[3-methoxy-4-(4-methyl-1H-imidazol-1-yl)phenyl]vinyl}-5,6,7,8-tetrahydro[1,2,4]triazolo[1,5-a]pyridin-8-yl}phenyl}pentan-1-ol]	43
COc1nc(/C=C/c2nc3n(n2)CC[C@@H](C)N3c2ccc(F)cc2F)ccc1-n1cnc(C)c1 [Example 371, (R)-4-(2,4-difluorophenyl)-2-{(E)-2-[6-methoxy-5-(4-methyl-1H-imidazol-1-yl)pyridin-2-yl]vinyl}-5-methyl-4,5,6,7-tetrahydro-[1,2,4]triazolo[1,5-a]pyrimidine]	27
COc1nc(/C=C/c2nc3n(n2)CC[C@H]3c2ccccc2)ccc1-n1cnc(C)c1 [Example 376, (S)-2-{(E)-2-[6-methoxy-5-(4-methyl-1H-imidazol-1-yl)pyridin-2-yl]vinyl}-7-phenyl-6,7-dihydro-5H-pyrrolo[1,2-b][1,2,4]triazole]	28
